According to patent publication US20070111258A1, “Compositions and methods for modulating the acute phase response” (priority 2005, published 2007):

Tests used:
[1] = test system: human CREBH; test: Cleavage of flag-tagged human CREBH stably expressed in H2.35 cells (Western blot, cell fractionation); assay type: cell-based
Procedure: FIG. 3 depicts the effects of ER stress on CREBH: proteolytic cleavage of CREBH to release its N-terminal fragment that translocates into the nucleus. (A) Illustration of transmembrane domains and lumenal domains of SREBP, ATF6, Luman and CREBH in human (hs), mouse (mm). The conserved residues for S1P and S2P recognition are highlighted. (B) Cleavage of CREBH in H2.35 cells under different stimuli. H2.35 cells stably expressing flag-tagged human CREBH were treated with 0.5 μg/ml BFA, 20 ng/ml TNFα, 40 ng/ml IL6, 5 mM DTT, 0.5 μM Tg or 5 μg/ml Tm for 8 hours. Untransfected H2.35 cells (lane 1) and the H2.35 cells that stably express human CREBH (lane 2) were cultured under normal conditions as control. Total cell lysates were collected for Western blot analysis by using an anti-flag monoclonal antibody (upper panel). Levels of α-actin were determined for control of protein loading (lower panel). (C) Cleavage of CREBH in H2.35 cells under Tm treatment for various time periods. The H2.35 cells stably expressing flag-tagged CREBH were cultured in the absence or presence of Tm (5 μg/ml) for 4, 8 or 12 hours. Membrane fractions were isolated from the total cell lysates, and were subjected to Western blot analysis of CREBH and calnexin, respectively. Nuclear fractions were isolated from the same total cell lysates and subjected to Western blot analysis of CREBH and PARP, respectively. (D) Translocation of CREBH in COS7 cells. COS7 cells were co-transfected with a construct expressing flag-tagged full-length CREBH (CREBH-F) or CREBH-ΔC and a construct expressing KDEL-RFP, and were then cultured in the absence or presence of Tm (5 μg/ml) for 4 hours. Cells were then stained with FITC-conjugated anti-flag antibody and subjected to Zeiss Confocal Microscope analysis. Magnification: 40×10.
For analysis of expression and cleavage of CREBH protein, total cell lysates were prepared from H2.35 cells or COS7 cells using Nonidet P-40 lysis buffer (1% NP-40, 50 mM Tris-HCl at pH 7.5, 150 mM NaCl, 0.05% SDS) supplemented with protease inhibitors (Complete Mini from Roche Applied Science), 0.1 mM sodium vanadate, and 1 mM sodium fluoride. Membrane and nuclear fractions of cell lysates were isolated as previously described (Dignam et al., 1983). The total cell lysate, membrane and nuclear fractions were subjected to SDS-PAGE and then analyzed by Western blot using anti-flag monoclonal antibody or other antibodies. Immunoprecipitation and Western blot analyses of ATF6 and CREBH interaction in 293T cells expressing flag-tagged CREBH protein were performed by using anti-human ATF6 and anti-flag antibodies. Total cell lysates from 293T cells transfected with control vector or pFlag-CREBH-ΔC were immunoprecipitated with anti-human ATF6 polyclonal antibody and anti-flag antibody, respectively. The immunoprecipitated cell lysates were then subjected to Western blotting by using anti-flag antibody to detect CREBH protein and using anti-human ATF6 antibody to detect ATF6 protein, respectively. The same total cell lysates were subjected to Western blotting by using anti-flag antibody to detect expression of CREBH protein in the transfected cells. For detecting endogenous CREBH protein in the liver extracts, an anti-mouse CREBH polyclonal antibody was raised in rabbits against a purified mouse CREBH peptide composed of amino acids 92-109 [[…]]. The rabbit anti-human ATF6 polyclonal antibody was generated in the inventor's laboratory. The anti-mouse calnexin monoclonal antibody and the anti-mouse monoclonal PRAP antibody were purchased from Stressgen Biotechnologies (Victoria, BC, Canada) and BD Bioscience (Mountain View, Calif., USA), respectively.

[2] = test system: BiP, CHOP, EDEM, spliced XBP1, SAP and CRP mRNAs; test: UPR and APR mRNA induction in mouse liver after injection (quantitative real-time RT-PCR); assay type: in vivo; conditions: intraperitoneal injection of Tm 2 mg/kg; 24 hours
Procedure: Levels of spliced XBP1 mRNA were determined by quantitative real-time RT-PCR (lower panel). […] (B) Induction of CRP, SAP, BiP and spliced XBP1 mRNAs in mice injected with Tm. C57BU6J mice at 3-months of age were injected intraperitoneally with Tm (2 mg/kg body weight) in 150 mM dextrose solution. Mice were injected with the same volume of dextrose solution as a control. Liver tissues were collected from mice at 24 hours after injection for RNA isolation. (C-E) Induction of the BiP, CHOP, EDEM, spliced XBP1, SAP and CRP mRNAs in mice challenged with IL6, IL1β, LPS or Tm. Wild-type C57B1/6J mice at 3-months of age were intraperitoneally injected with recombinant murine IL6 (25 ng/gram body weight), recombinant murine IL1β (25 ng/gram body weight), LPS (3 μg/gram body weight) or Tm (2 μg/gram body weight). Mice were injected with the same volume of NaCL (for panels C and D) or dextrose (for panels E) solution as controls. At 24 hours after injection, liver samples were collected for isolating total RNA. Quantitative real-time RT-PCR was used to determine the mRNA levels. Fold changes of mRNA induction were determined after normalization of the mRNA levels to internal control 18S ribosomal RNA levels. Each bar denotes the mean±S.D., n=5 mice per injection.
Quantitative real-time RT-PCR was performed as previously described (Back et al., 2005). Briefly, total cellular RNA prepared was reverse-transcribed to cDNA using a random primer (Applied Biosystems). The reaction mixture, containing SYBR Green PCR Master Mix (Applied Biosystems), was run in a 7900HT Fast Real-Time PCR System (Applied Biosystems). Real-time PCR primer sequences for quantification of murine XBP1 mRNA splicing are: the forward primer 5′-[sequence]-3′, and the reverse primer 5′-[sequence]-3′. Other primer sequences were designed by Primer Express (Applied Biosystems).

Substance: tunicamycin [Tm]
- cleavage of CREBH to release a 50 kD N-terminal fragment ([1]; H2.35 cells stably expressing flag-tagged human CREBH, 8 hours, BFA 0.5 μg/ml, TNFα 20 ng/ml, IL6 40 ng/ml, DTT 5 mM, Tg 0.5 μM, Tm 5 μg/ml): significantly induced cleavage of CREBH
- amount of 50 kD N-terminal cleaved CREBH fragment in the nuclear fraction ([1]; Tm 5 μg/ml for 4, 8 or 12 hours): gradually increased with increasing times of Tm treatment
- expression of APR genes and UPR genes in the livers of mice [2]: induced expression of both the APR genes and the UPR genes
